Data from PubChem BioAssay (NCI).
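These data come from cells grown in 96-well plates and exposed to compound for 48 hours at five concentrations. TGI denotes the concentration required for complete inhibition of growth.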

Columns and labels:
Assay in all cases: growth of human tumour cells (NCI), 48 h
CAKI-1 renal = tested on: CAKI-1 renal
HCT-15 colon = tested on: HCT-15 colon
HOP-62 NSCLC = tested on: HOP-62 NSCLC
IGROV1 ovarian = tested on: IGROV1 ovarian
M14 melanoma = tested on: M14 melanoma
NCI/ADR-RES ovarian = tested on: NCI/ADR-RES ovarian
RXF 393 renal = tested on: RXF 393 renal
SW-620 colon = tested on: SW-620 colon
T-47D breast = tested on: T-47D breast
UO-31 renal = tested on: UO-31 renal

Row | SMILES | TGI (CAKI-1 renal) | TGI (HCT-15 colon) | TGI (HOP-62 NSCLC) | TGI (IGROV1 ovarian) | TGI (M14 melanoma) | TGI (NCI/ADR-RES ovarian) | TGI (RXF 393 renal) | TGI (SW-620 colon) | TGI (T-47D breast) | TGI (UO-31 renal)
1 | CC(C)Oc1c(-c2c(OC(C)C)c(=O)c2=O)c(=O)c1=O | > 100 µM | > 100 µM | > 85.2 µM | > 51.5 µM | > 100 µM | 26.8 µM | > 78.5 µM | > 62 µM | > 100 µM | > 100 µM
2 | COC(=O)c1cc(C)ccc1CC(Cc1cccc(C)c1)C(=O)OC (stereo not given) | > 100 µM | > 100 µM | > 100 µM | > 100 µM | > 100 µM | > 100 µM | 73.6 µM | > 100 µM | > 100 µM | > 100 µM
3 | COC(=O)Cc1ccc2c(c1)Sc1ccc(CC(=O)OC)cc1N2C | 52 µM | > 92.6 µM | > 100 µM | > 100 µM | > 100 µM | > 68.3 µM | > 100 µM | > 100 µM | > 100 µM | > 58.5 µM
4 | CCN1CC(C)Cn2c(=O)[nH]c3cc(Br)cc1c32 (stereo not given) | > 100 µM | > 100 µM | > 100 µM | > 100 µM | > 100 µM | > 100 µM | 37.3 µM | > 100 µM | > 100 µM | > 100 µM
5 | CCN(CC)Cc1nc2sc3c(c2c(=O)n1-c1ccccc1)CCCC3 | 56.9 µM | 51.7 µM | 86.7 µM | 39 µM | 30.2 µM | 62.1 µM | 37.6 µM | 37.3 µM | 44.7 µM | 23.3 µM
6 | O=C(NCCN(CCNC(=O)c1cccc(=O)n1O)CCN(CCNC(=O)c1cccc(=O)n1O)CCNC(=O)c1cccc(=O)n1O)c1cccc(=O)n1O | > 100 µM | > 100 µM | > 100 µM | > 100 µM | > 100 µM | > 100 µM | > 100 µM | > 100 µM | > 100 µM | > 100 µM
7 | CN1CC2=C(OC(N)=C(C#N)C2c2cccs2)/C(=C/c2cccs2)C1 (stereo not given) | > 100 µM | > 100 µM | 51.9 µM | > 65.8 µM | > 55.9 µM | 23.6 µM | 48.5 µM | > 100 µM | 1.47 µM | > 84.8 µM
8 | CSc1nc(NC2CCCC2)c2cc[nH]c2n1 | > 100 µM | > 100 µM | > 100 µM | > 100 µM | > 100 µM | > 100 µM | > 100 µM | > 100 µM | > 100 µM | > 100 µM
9 | CC(C)(CN)CN | > 100 µM | > 100 µM | > 100 µM | > 100 µM | > 100 µM | > 100 µM | > 100 µM | > 100 µM | > 100 µM | > 100 µM
10 | COc1ccc2c(c1)OC(c1cccnc1)C(c1ccccc1)C2=O (stereo not given) | > 100 µM | > 100 µM | > 100 µM | > 100 µM | > 100 µM | > 100 µM | > 100 µM | > 100 µM | > 100 µM | > 100 µM
11 | CN(C)c1ccc(/C=N/Nc2nc3ccccc3c(=O)n2-c2ccccc2)cc1 | > 100 µM | > 100 µM | 97.8 µM | > 100 µM | > 100 µM | > 100 µM | > 100 µM | > 100 µM | > 100 µM | > 100 µM
12 | Cc1ccc(F)cc1NC(=O)O/N=C(\Cl)C(C)C | 3.09 µM | 3.66 µM | 37.2 µM | 33.6 µM | 12.2 µM | 27.2 µM | 9.51 µM | 3.18 µM | 33.6 µM | 23.2 µM
13 | COC(=O)/C=C\Sc1ccn(/C=C\C(=O)OC)c(=S)n1 | 31.9 µM | 42.6 µM | 32.4 µM | 35.2 µM | > 100 µM | 40.7 µM | 23.3 µM | 56.5 µM | 46.1 µM | 50.5 µM
14 | NCCC(N)C(=O)O (stereo not given) | > 100 µM | > 100 µM | > 100 µM | > 100 µM | > 100 µM | > 100 µM | > 100 µM | > 100 µM | > 100 µM | > 100 µM
15 | c1ccc2c(-c3cnc(-c4c[nH]c5ccccc45)cn3)c[nH]c2c1 | > 100 µM | > 100 µM | > 100 µM | > 100 µM | > 100 µM | > 100 µM | > 100 µM | 47.9 µM | > 100 µM | > 100 µM
16 | COC(=O)/C=C/c1ccccc1N=[S@](C)(=O)c1ccc(C)cc1 | > 100 µM | > 100 µM | > 100 µM | > 100 µM | 55.1 µM | 72.5 µM | 37.1 µM | > 100 µM | > 100 µM | > 100 µM
17 | CC(=O)NNc1nc(C)c(C(/C=C/c2ccc3c(c2)OCO3)=N/Nc2ccccc2)s1 | > 100 µM | > 100 µM | > 100 µM | > 100 µM | > 100 µM | > 100 µM | > 100 µM | > 100 µM | > 100 µM | > 100 µM
